Data on 16 compounds can be found in patent publication US11192867B2, “Microbiocidal oxadiazole derivatives” (SYNGENTA PARTICIPATIONS AG, priority 2016, dated 2021).

Assay [1] concerns Puccinia recondita f. sp. Tritici. The assay can be described thus: Fungicidal activity against Puccinia recondita f. sp. Tritici / wheat / leaf disc curative (brown rust). The format is in vivo. Conditions: foliar, 24 h, 200 ppm in the applied formulation, wheat leaf segments cv. Kanzler, applied 1 day after inoculation, vs untreated control, read-out: disease control. How it is done:
(§1) Leaf disks or leaf segments of various plant species are cut from plants grown in a greenhouse. The cut leaf disks or segments are placed in multiwell plates (24-well format) onto water agar. The leaf disks are sprayed with a test solution before (preventative) or after (curative) inoculation. Compounds to be tested are prepared as DMSO solutions (max. 10 mg/ml) which are diluted to the appropriate concentration with 0.025% Tween20 just before spraying. The inoculated leaf disks or segments are incubated under defined conditions (temperature, relative humidity, light, etc.) according to the respective test system. A single evaluation of disease level is carried out 3 to 14 days after inoculation, depending on the pathosystem. Percent disease control relative to the untreated check leaf disks or segments is then calculated.
Wheat leaf segments cv. Kanzler are placed on agar in multiwell plates (24-well format). The leaf segments are then inoculated with a spore suspension of the fungus. Plates were stored in darkness at 19° C. and 75% relative humidity. The formulated test compound diluted in water was applied 1 day after inoculation. The leaf segments were incubated at 19° C. and 75% relative humidity under a light regime of 12 hours light/12 hours darkness in a climate cabinet and the activity of a compound was assessed as percent disease control compared to untreated when an appropriate level of disease damage appears in untreated check leaf segments (6 to 8 days after application).
The following compounds at 200 ppm in the applied formulation give at least 80% disease control in this test when compared to untreated control leaf disks under the same conditions, which show extensive disease development.

For assay [2], the system named is Glomerella lagenarium (Colletotrichum lagenarium). The assay can be described thus: Fungicidal activity against Glomerella lagenarium (Colletotrichum lagenarium) liquid culture / cucumber / preventative (anthracnose). The assay is classed as cell-based. The following applies: Colletotrichum orbiculare, 72 h; 20 ppm in the applied formulation; liquid culture (PDB), growth inhibition measured photometrically 3 to 4 days after application; vs untreated control; read-out: disease control. The method, then:
Mycelia fragments or conidia suspensions of a fungus prepared either freshly from liquid cultures of the fungus or from cryogenic storage, are directly mixed into nutrient broth. DMSO solutions of the test compound (max. 10 mg/ml) are diluted with 0.025% Tween20 by a factor of 50 and 10 μl of this solution is pipetted into a microtiter plate (96-well format). The nutrient broth containing the fungal spores/mycelia fragments is then added to give an end concentration of the tested compound. The test plates are incubated in the dark at 24° C. and 96% relative humidity. The inhibition of fungal growth is determined photometrically after 2 to 7 days, depending on the pathosystem, and percent antifungal activity relative to the untreated check is calculated.
Conidia of the fungus from cryogenic storage are directly mixed into nutrient broth (PDB—potato dextrose broth). After placing a (DMSO) solution of test compound into a microtiter plate (96-well format), the nutrient broth containing the fungal spores is added. The test plates are incubated at 24° C. and the inhibition of growth is measured photometrically 3 to 4 days after application.
The following compounds at 20 ppm in the applied formulation give at least 80% disease control in this test when compared to untreated control under the same conditions, which show extensive disease development.

The next assay relates to Phakopsora pachyrhizi. The assay can be described thus: Fungicidal activity against Phakopsora pachyrhizi / soybean / leaf disc preventative (Asian soybean rust). The assay is classed as in vivo. Conditions: foliar, 200 ppm in the applied formulation, soybean leaf disks, vs untreated control, read-out: disease control. How it is done:
as §1, with “calculated. Soybean leaf disks are placed on water agar in multiwell plates (24-well format) and sprayed with the formulated test compound diluted in water. One day after application leaf discs are inoculated by spraying a spore suspension on the lower leaf surface. After an incubation period in a climate cabinet of 24-36 hours in darkness at 20° C. and 75% rh leaf disc are kept at 20° C. with 12 hours light/12 hours and 75% rh. The activity of a compound is assessed as percent disease control compared to untreated when an appropriate level of disease damage appears in untreated check leaf disks (12 to 14 days after application). The following compounds at 200 ppm in the applied formulation give at least 80% disease control in this test when compared to untreated control leaf disks under the same conditions, which show extensive disease development.” for “calculated.”

The subject of assay [3] is Puccinia recondita f. sp. Tritici. Description: Fungicidal activity against Puccinia recondita f. sp. Tritici / wheat / leaf disc preventative (brown rust). The following applies: foliar, 200 ppm in the applied formulation, wheat leaf segments cv. Kanzler, inoculated 1 day after application, vs untreated control, read-out: disease control. The format is in vivo. The method, then: as §1, with “calculated. Wheat leaf segments cv. Kanzler were placed on agar in multiwell plates (24-well format) and sprayed with the formulated test compound diluted in water. The leaf disks were inoculated with a spore suspension of the fungus 1 day after application. The inoculated leaf segments were incubated at 19° C. and 75% relative humidity (rh) under a light regime of 12 hours light/12 hours darkness in a climate cabinet and the activity of a compound was assessed as percent disease control compared to untreated when an appropriate level of disease damage appears in untreated check leaf segments (7 to 9 days after application). The following compounds at 200 ppm in the applied formulation give at least 80% disease control in this test when compared to untreated control leaf disks under the same conditions, which show extensive disease development.” for “calculated.”

Some results are limits rather than exact numbers.

Regarding `CON=CC(C)(C)NC(=O)c1ccc(-c2noc(C(F)(F)F)n2)cc1` [Compound 1.1, N-(2-methoxyimino-1,1-dimethyl-ethyl)-4-[5-(trifluoromethyl)-1,2,4-oxadiazol-3-yl]benzamide], the pest or weed control at 200 ppm in assay [1] was at least 80%. The inhibition of growth at 20 ppm in assay [2] is at least 80%.

With `CC(C=NOCc1ccc([N+](=O)[O-])cc1)NC(=O)c1ccc(-c2noc(C(F)(F)F)n2)cc1` (stereo not shown) [Compound 1.16, N-[1-methyl-2-[(4-nitrophenyl)methoxyimino]ethyl]-4-[5-(trifluoromethyl)-1,2,4-oxadiazol-3-yl]benzamide], the pest or weed control at 200 ppm (in assay [1]; in the assay on Phakopsora pachyrhizi) was at least 80% throughout.

Take `Cc1ccc(CON=CC(C)NC(=O)c2ccc(-c3noc(C(F)(F)F)n3)cc2)cc1` (stereo not shown) [Compound 1.18, N-[1-methyl-2-(p-tolylmethoxyimino)ethyl]-4-[5-(trifluoromethyl)-1,2,4-oxadiazol-3-yl]benzamide]: the pest or weed control at 200 ppm in assay [1] is at least 80%.

As for `COc1ccc(CON=CC(C)NC(=O)c2ccc(-c3noc(C(F)(F)F)n3)cc2)cc1` (stereo not shown) [Compound 1.19, N-[2-[(4-methoxyphenyl)methoxyimino]-1-methyl-ethyl]-4-[5-(trifluoromethyl)-1,2,4-oxadiazol-3-yl]benzamide], the pest or weed control at 200 ppm (in assay [1]; in the assay with Phakopsora pachyrhizi) was at least 80% in each case.

On to `O=C(NCC=NOCc1ccc(F)cc1Cl)c1ccc(-c2noc(C(F)(F)F)n2)cc1` [Compound 1.71, N-[2-[(2-chloro-4-fluoro-phenyl)methoxy-imino]ethyl]-4-[5-(trifluoromethyl)-1,2,4-oxadiazol-3-yl]benzamide], for which the pest or weed control at 200 ppm (in assay [3]; with Phakopsora pachyrhizi) was at least 80% throughout. The inhibition of growth at 20 ppm in assay [2] was at least 80%.

Regarding `O=C(NCC=NOCC=C(Cl)Cl)c1ccc(-c2noc(C(F)(F)F)n2)cc1` [Compound 1.79, N-[2-(3,3-dichloroallyloxy-imino)ethyl]-4-[5-(trifluoromethyl)-1,2,4-oxadiazol-3-yl]benzamide], the pest or weed control at 200 ppm (in assay [3]; in the assay on Phakopsora pachyrhizi) was at least 80% throughout. For the same compound, the inhibition of growth at 20 ppm in assay [2] was at least 80%.

Consider `CC(C)=CCON=CCNC(=O)c1ccc(-c2noc(C(F)(F)F)n2)cc1` [Compound 1.80, N-[2-(3-methylbut-2-enoxyimino)ethyl]-4-[5-(trifluoromethyl)-1,2,4-oxadiazol-3-yl]benzamide], for which the pest or weed control at 200 ppm (in assay [3]; with Phakopsora pachyrhizi) was at least 80% throughout. The inhibition of growth at 20 ppm in assay [2] is at least 80%.

As for `O=C(NCC=NOCc1ccccc1)c1ccc(-c2noc(C(F)(F)F)n2)cc1` [Compound 1.90, N-(2-benzyloxyimino-ethyl)-4-[5-(trifluoromethyl)-1,2,4-oxadiazol-3-yl]benzamide], the pest or weed control at 200 ppm (in assay [3]; with Phakopsora pachyrhizi) was at least 80% in each case. The inhibition of growth at 20 ppm in assay [2] is at least 80%.

Take `O=C(O)Cc1ccccc1CON=CCNC(=O)c1ccc(-c2noc(C(F)(F)F)n2)cc1` [Compound 1.92, 2-[2-[[2-[[4-[5-(trifluoromethyl)-1,2,4-oxadiazol-3-yl]benzoyl]amino]ethylideneamino]oxymethyl]phenyl] acetic acid]: the pest or weed control at 200 ppm (in assay [3]; in the assay with Phakopsora pachyrhizi) was at least 80% in each case. Also, in assay [2], the inhibition of growth at 20 ppm was at least 80%.

`CC(CNC(=O)c1ccc(-c2noc(C(F)(F)F)n2)cc1)=NOCC=CCl` [Compound 1.121, N-[2-(3-chloroallyloxy-imino)propyl]-4-[5-(trifluoromethyl)-1,2,4-oxadiazol-3-yl]benzamide]: the pest or weed control at 200 ppm (in assay [3]; in the assay on Phakopsora pachyrhizi) was at least 80% in each case. In addition, the inhibition of growth at 20 ppm in assay [2] was at least 80%.

As for `CC(CNC(=O)c1ccc(-c2noc(C(F)(F)F)n2)cc1)=NOCC=C(Cl)Cl` [Compound 1.122, N-[2-(3,3-dichloroallyloxy-imino)propyl]-4-[5-(trifluoromethyl)-1,2,4-oxadiazol-3-yl]benzamide], the pest or weed control at 200 ppm (in assay [3]; with Phakopsora pachyrhizi) was at least 80% each time. The inhibition of growth at 20 ppm in assay [2] is at least 80%.

For the compound `CC(C)=CCON=C(C)CNC(=O)c1ccc(-c2noc(C(F)(F)F)n2)cc1` [Compound 1.123, N-[2-(3-methylbut-2-enoxyimino)propyl]-4-[5-(trifluoromethyl)-1,2,4-oxadiazol-3-yl]benzamide], the pest or weed control at 200 ppm (in assay [3]; in the assay with Phakopsora pachyrhizi) was at least 80% in each case. The inhibition of growth at 20 ppm in assay [2] was at least 80%.

On to `CC(CNC(=O)c1ccc(-c2noc(C(F)(F)F)n2)cc1)=NOC/C=C\Cl` [Compound 1.124, N-[2-[(Z)-3-chloroallyloxy]iminopropyl]-4-[5-(trifluoromethyl)-1,2,4-oxadiazol-3-yl]benzamide], for which the pest or weed control at 200 ppm (in assay [3]; with Phakopsora pachyrhizi) was at least 80% throughout. The inhibition of growth at 20 ppm in assay [2] is at least 80%.

Turning to `CC(CNC(=O)c1ccc(-c2noc(C(F)(F)F)n2)cc1)=NOC(C)(C)C` [Compound 1.132, N-(2-tert-butoxyiminopropyl)-4-[5-(trifluoromethyl)-1,2,4-oxadiazol-3-yl]benzamide], the pest or weed control at 200 ppm (in assay [3]; in the assay with Phakopsora pachyrhizi) was at least 80% each time. Besides, the inhibition of growth at 20 ppm in assay [2] was at least 80%.

As for `CC(CNC(=O)c1ccc(-c2noc(C(F)(F)F)n2)cc1)=NOCC(F)(F)F` [Compound 1.139, N-[2-(2,2,2-trifluoroethoxy-imino)propyl]-4-[5-(trifluoromethyl)-1,2,4-oxadiazol-3-yl]benzamide], the pest or weed control at 200 ppm (in assay [3]; in the assay on Phakopsora pachyrhizi) was at least 80% in each case. Besides, in assay [2], the inhibition of growth at 20 ppm is at least 80%.

On to `C=C(Cl)CON=C(C)CNC(=O)c1ccc(-c2noc(C(F)(F)F)n2)cc1` [Compound 1.144, N-[2-(2-chloroallyloxy-imino)propyl]-4-[5-(trifluoromethyl)-1,2,4-oxadiazol-3-yl]benzamide], for which the pest or weed control at 200 ppm (in assay [3]; with Phakopsora pachyrhizi) was at least 80% each time. In addition, the inhibition of growth at 20 ppm in assay [2] was at least 80%.
